From US9586959B2, “Substituted tricyclic heterocycles as histamine 4 receptor inhibitors” (C&C RESEARCH LABORATORIES, priority 2011, dated 2017)
In brackets after ≈: the same amount, converted by molar mass.

Legend:
[1] = tested on: oxazolone-induced atopic dermatitis, Balb/c mice; experiment: Oxazolone-induced atopic dermatitis model in Balb/c mice; type: in vivo; conditions: BID, oral, days 8-28
Description: Female, Balb/c mice (6 weeks old, 20±3 g) were purchased from OrientBio Co., Ltd. The animals were housed under conditions of controlled temperature (23±3° C.), humidity (50±5%) and lighting with food and water available ad libitum.
On the beginning day (day 1), mice were sensitized by the topical application of 50 μL of 1% oxazolone in acetone and olive oil (4:1 ratio) on the abdominal skin. On day 8, 10, 12, 15, 17, 19, 22, 24 and 26, 25 μL of 0.2% oxazolone was applied topically on the inner side of right ear of each mouse. Between days 8 and 28, the compound of the invention was administered orally (10 mL/kg) twice a day in the morning and afternoon, and on days 12, 19 and 27, the thickness of the right ear of the mouse was measured. On day 28, the ear tissue of the mouse was extracted, fixed in 10% formalin solution, and then a tissue slide was prepared, stained with H&E (hematoxylin & eosin), and then the thickness of the ear was observed (Journal of Investigative Dermatology, 2008, 128, 79-86). Statistical analysis was analyzed using one-way ANOVA with Dunnett test. Values of p<0.05 were considered statistically significant.

[2] = Rat pharmacokinetics (oral); type: in vivo; conditions: plasma, 10 mg/kg, SD rat, 2 mg/mL solution at 5 mL/kg; for AUC(0-inf): read-out: Rat pharmacokinetics AUCinf; for half-life: read-out: Rat pharmacokinetics t1/2 (converted)
Description: The weight of each ICR mouse and SD rat was properly 20˜30 g and 200˜300 g, and dosage of the compound of the present invention was 10 mL/kg for mice and 5 mL/kg for rats, and administered orally using Zonde. Blood collection was performed at 0.25, 0.5, 1, 2, 4, 6, 8 and 24 hours by orbital venous blood collection using a capillary tube coated with an anticoagulant, and then plasma was isolated using a centrifuge and kept in a freezer.
Plasma collected from animals and standard concentration material were pretreated using solid-phase extraction, and concentration of the compound of the invention was determined using a liquid chromatography mass spectrometer (Agilent HPLC, API-3000).
According to the resulting concentration value, the pharmacokinetics parameter was found using WinNonlin (Version 6.2) and half-life (t1/2), maximum blood concentration (Cmax) and infinite area under the curve (AUCinf) are shown in Tables 6 and 7 below.

[3] = tested on: compound 48/80-induced itching, ICR mice; experiment: Compound 48/80-induced itching model in ICR mice; type: in vivo; conditions: 50 mg/kg oral, compound 48/80 100 μg intradermal, 20 min count
Description: Female, ICR mice (8 weeks old) were purchased from OrientBio Co., Ltd. The animals were housed under conditions of controlled temperature (23±3° C.), humidity (50±5%) and lighting with food and water available ad libitum.
The hair was clipped using clippers (8000AD, THRIVE) over the rostral part of the back 24 hours before the experiment under anesthesia with isoflurane. Compound 48/80 (100 μg) were dissolved in saline and a volume of 40 μL injected intradermally into the rostral part of the back. Mice were dosed by orally with either vehicle (20% cyclodextrin in second distilled water) or the compound by orally administration. The Compound (50 mg/kg) dissolved in a vehicle (20% cyclodextrin in second distilled water) and administered orally at a volume of 10 mL/kg.
Mice (n=8-10 per group) were divided into 3 groups (normal group, control group and experimental group). The animals were randomized for similar body weight distribution. A vehicle or the compound was administered 20 minutes before injection of compound 48/80 or saline. Immediately after intradermal injection, the animals were returned to an acrylic cage (approximately 30×30×30 cm, access production) composed of four cells, to which they had been acclimated for at least 1 hour before the experiment, for observation of itch responses. A camera (Samsung, VLUUNV30) was positioned above the mice to record their response. Itch was measured by blinded counting of the number of bouts in the 20 min period immediately after the intradermal injection. A number of scratching was defined as 3 or more individual rapid scratch movements with the hind paws around the injection site (J. Pharmacol. Sci. 2006, 100, 285-288; European J. of Pharmacol. 2002, 448, 175-183). All data were analyzed by using Excel and Prism, and all values are expressed as the mean±S.E.M. The inhibitory effect of compounds is shown as a percentage of the maximal response to histamine (100% control group). Statistical analysis was analyzed using one-way ANOVA with Dunnett test. Values of p<0.05 were considered statistically significant.

[4] = target: human histamine 3 receptor (hH3R) (Homo sapiens (Human), UniProt Q9Y5N1); experiment: Binding affinity of human histamine 3 receptor (hH3R), [3H] labeled N-α-methylhistamine displacement; conditions: hH3R-overexpressed cell membrane, [3H] N-α-methylhistamine
Sequence of human histamine 3 receptor (hH3R) (Q9Y5N1 whole entry): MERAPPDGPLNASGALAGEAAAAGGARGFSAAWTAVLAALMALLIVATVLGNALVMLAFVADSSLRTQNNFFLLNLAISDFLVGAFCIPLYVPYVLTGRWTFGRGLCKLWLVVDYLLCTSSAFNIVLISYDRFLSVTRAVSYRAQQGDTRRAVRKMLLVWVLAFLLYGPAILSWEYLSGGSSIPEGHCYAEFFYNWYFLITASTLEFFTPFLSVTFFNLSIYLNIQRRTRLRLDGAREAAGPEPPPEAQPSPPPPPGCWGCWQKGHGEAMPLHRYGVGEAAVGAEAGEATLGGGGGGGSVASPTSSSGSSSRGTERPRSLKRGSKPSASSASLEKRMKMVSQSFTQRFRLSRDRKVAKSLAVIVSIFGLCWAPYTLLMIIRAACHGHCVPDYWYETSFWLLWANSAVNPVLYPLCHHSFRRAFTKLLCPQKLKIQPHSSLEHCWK
Summary of the method: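 Membranes from cells overexpressing hH3R (15 μg) were incubated with compound and [3H]N-α-methylhistamine (20 μM stock) in 50 mM Tris-HCl pH 7.4, 5 mM MgCl2 for 30 min at 27 °C. Bound radioligand was counted by scintillation after filtration; 200 μM (R)(−)-α-methylhistamine stock defined non-specific binding; IC50 derived.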

[5] = Solubility in artificial gastrointestinal tract solution; type: physicochemical; conditions: artificial gastrointestinal tract solution, thermodynamic from solid; for solubility at 1 h: fassgf or other biorelevant, first solution pH 1.2, 2 mg/mL sample, 37° C. 1 hour; for solubility at 2 h: fassif, second solution pH 6.5, 2 mg/mL sample, 37° C. 2 hours
Summary of the method: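 Two media were used: pH 1.2 NaCl/HCl with Triton X-100, and pH 6.5 phosphate buffer with sodium taurocholate and lecithin. Heated sample solutions were filtered to remove undissolved compound, diluted 1:1 with CH3CN, and solubility was measured by liquid chromatography.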

Structure (SMILES)	Ear epidermis thickness (% change from control group) ([1]; 100 mg/kg)	Cmax [2] [ng/mL]	AUC(0-inf) [2] [ng·h/mL]	half-life [2] [h]	Number of scratching (% change from control group) [3]	IC50 [4] [µM]	solubility at 1 h [5] [µg/mL]	solubility at 2 h [5] [µg/mL]	Ear epidermis thickness (% change from control group) ([1]; 50 mg/kg) [%]
CN1CCN(c2nc3ncc(Cl)cc3n3cnnc23)CC1 [Compound 4, 8-Chloro-4-(4-methylpiperazin-1-yl)pyrido[2,3-e][1,2,4]triazolo[4,3-a]pyrazine]	47.2%	1950	7740	1.88	49.6^1%	90	2010 (≈ 6.61 mM)	1240 (≈ 4.09 mM)	
Clc1cnc2nc(N3CCNCC3)c3nncn3c2c1 [Compound 7, 8-Chloro-4-(piperazin-1-yl)pyrido[2,3-e][1,2,4]triazolo[4,3-a]pyrazine]		1330	3110	1.62		> 100	1370 (≈ 4.74 mM)	1150 (≈ 3.97 mM)	
CNC1CN(c2nc3ncc(Cl)cc3n3cnnc23)C1 [Compound 18, 1-(8-Chloropyrido[2,3-e][1,2,4]triazolo[4,3-a]pyrazin-4-yl)-N-methylazetidin-3-amine]		2590	4560	1.04	50.9^1%	> 100	1590 (≈ 5.5 mM)	791 (≈ 2.73 mM)	
CNC1CN(c2nc3ncc(Br)cc3n3cnnc23)C1 [Compound 24, 1-(8-Bromopyrido[2,3-e][1,2,4]triazolo[4,3-a]pyrazin-4-yl)-N-methylazetidin-3-amine]	51.2^1%	2420	4510	1.3	47.9^1%	> 100	1690 (≈ 5.06 mM)	939 (≈ 2.81 mM)	
CNC1CN(c2nc3ncc(I)cc3n3cnnc23)C1 [Compound 48, 1-(8-Iodopyrido[2,3-e][1,2,4]triazolo[4,3-a]pyrazin-4-yl)-N-methylazetidin-3-amine]					30.3%	> 100	1610 (≈ 4.22 mM)	677 (≈ 1.78 mM)	
CNC1CN(c2nc3ncc(Br)cc3n3nnnc23)C1 [Compound 95, 1-(8-Bromopyrido[2,3-e]tetrazolo[1,5-a]pyrazin-4-yl)-N-methylazetidin-3-amine]					93.6^1%	> 100	1790 (≈ 5.34 mM)	1130 (≈ 3.36 mM)	34.9
